Experimental data from ChEMBL document CHEMBL4190161 (Medchemcomm, 2016).
Activity calls are given as the source filed them. The calls are words filed in the database; no cut-off is given here. Starred links: 1 amine or outer side, 2 acyl side, 3 side chain; linkers in the order of their positions; H or OH if unused. Residues, ends and D or L forms follow the SMILES beside them. γGlu = O=C(O)[C@H](CCC(=O)[*:2])N[*:1]

Tests used:
[1] = Antioxidant activity of the compound in phosphate buffer at pH 7.4 assessed as trolox equivalent of AAPH-induced peroxyl radical scavenging activity measured at 2 mins interval for 80 minutes by ORAC-FL assay; format: functional
[2] = Antioxidant activity assessed as DPPH radical scavenging activity incubated for 30 mins under dark condition by spectrophotometric method; format: functional
[3] = Metal chelating activity assessed as compound-Fe2+ complex formation
[4] = Antioxidant activity of the compound in phosphate buffer at pH 7.4 assessed as trolox equivalent of AAPH-induced peroxyl radical scavenging activity at 6 uM pretreated for 2 mins followed by AAPH addition measured at 2 mins interval for 108 minutes by ORAC-FL assay; format: functional
[5] = Antioxidant activity assessed as trolox equivalent of hydroxyl radical scavenging activity up to 25 mg/ml measured after 60 mins by fenton reaction method; format: functional
[6] = Antioxidant activity of the compound in phosphate buffer at pH 6.6 assessed as trolox equivalent of potassium ferric cyanide ion reducing activity at 0.4 mM after 20 mins by spectrophotometric method; format: functional
[7] = Antioxidant activity assessed as DPPH radical scavenging activity measured after 20 mins by spectrophotometric method; format: functional
[8] = Antioxidant activity assessed as ABTS radical scavenging activity measured within 12 mins by spectrophotometric method; format: functional
[9] = Antioxidant activity of the compound in phosphate buffered saline at pH 7.4 assessed as trolox equivalent of ABTS radical scavenging activity after 6 mins by spectrophotometric method; format: functional
[10] = Antioxidant activity assessed as DPPH radical scavenging activity measured after 30 mins by spectrophotometric method; format: functional

CSCC[C@H](N)C(=O)O
Activity (umolequiv/umol) [1]: 1.13

CC(C)C[C@H](NC(=O)[C@@H](N)CCCCN)C(=O)N[C@@H](CCC(=O)O)C(=O)O (H-Lys-Leu-Glu-OH)
IC50 [2]: 348 mM
Activity [3]: inactive
Activity (umolequiv/umol) [4]: -0.04
Activity [5]: inactive

N[C@@H](CCC(=O)O)C(=O)N[C@@H](CS)C(=O)N[C@@H](Cc1cnc[nH]1)C(=O)O (H-Glu-Cys-His-OH)
Activity (umolequiv/umol) [6]: 61.2
IC50 [2]: 0.11 mM
Activity [3]: inactive
Activity [7]: inactive
Activity (umolequiv/umol) [4]: 0.1
Activity [5]: Active
Activity [8]: Active

CC(C)C[C@H](NC(=O)[C@H](CCCCN)NC(=O)[C@@H](N)Cc1ccccc1)C(=O)O (H-Phe-Lys-Leu-OH)
Activity (umolequiv/umol) [6]: 20.4
IC50 [2]: 4.2 mM
Activity [3]: inactive
Activity (umolequiv/umol) [4]: -0.06
Activity [5]: Active

CC(C)C[C@H](NC(=O)[C@H](Cc1cnc[nH]1)NC(=O)[C@@H](N)Cc1ccc(O)cc1)C(=O)O
IC50 [2]: 99.9 mM
Activity [3]: inactive
Activity (umolequiv/umol) [4]: 0.36
Activity [5]: Active

CC(C)C[C@H](N)C(=O)N[C@@H](Cc1cnc[nH]1)C(=O)NCC(=O)O (H-Leu-His-Gly-OH)
IC50 [2]: 102 mM
Activity [3]: inactive
Activity (umolequiv/umol) [4]: -0.48
Activity [5]: Active

N[C@@H](Cc1ccccc1)C(=O)O
Activity (umolequiv/umol) [1]: 0.0025

N[C@@H](CS)C(=O)O
Activity (umolequiv/umol) [1]: 0.149

N[C@@H](CCC(=O)N[C@@H](CS)C(=O)NCC(=O)O)C(=O)O [GLUTATHIONE]
Activity (umolequiv/umol) [6]: 50.7
IC50 [2]: 0.16 mM
Activity [3]: inactive
Activity (umolequiv/umol) [4]: 0.65
Activity [8]: Active

N[C@@H](Cc1ccc(O)cc1)C(=O)O
Activity (umolequiv/umol) [1]: 1.57

CC(C)[C@H](NC(=O)[C@@H](N)CCCCN)C(=O)N[C@@H](Cc1cnc[nH]1)C(=O)O (H-Lys-Val-His-OH)
IC50 [2]: 285 mM
Activity [3]: inactive
Activity (umolequiv/umol) [4]: 0.03
Activity [5]: Active

N[C@@H](Cc1ccc(O)cc1)C(=O)N[C@@H](CCC(=O)O)C(=O)NCC(=O)O (H-Tyr-Glu-Gly-OH)
IC50 [2]: 78.8 mM
Activity [3]: inactive
Activity (umolequiv/umol) [4]: 1.2
Activity (mmolequiv/mmol) [5]: 0.47
Activity [8]: Active

O=C(O)CNC(=O)[C@H](CS)NC(=O)[C@@H]1CCCN1 (H-Pro-Cys-Gly-OH)
Activity (umolequiv/umol) [6]: 25.2
Activity [9]: Active
IC50 [2]: 0.3 mM
Activity [3]: inactive
Activity [10]: inactive
Activity (umolequiv/umol) [4]: 0.2
Activity [5]: Active

CC(C)C[C@H](NC(=O)[C@H](CCC(=O)O)NC(=O)CN)C(=O)O (H-Gly-Glu-Leu-OH)
IC50 [2]: 521 mM
Activity [3]: inactive
Activity (umolequiv/umol) [4]: -0.1
Activity [5]: inactive

N[C@@H](CCC(=O)N[C@@H](CS)C(=O)N[C@@H](Cc1cnc[nH]1)C(=O)O)C(=O)O (γGlu-Cys-His-OH)
Activity [9]: Active

N[C@@H](Cc1c[nH]cn1)C(=O)O
Activity (umolequiv/umol) [1]: 0.073
